The text below walks through data of ChEMBL document CHEMBL1671622, “Novel mutation in 23S rRNA that confers low-level resistance to clarithromycin in Helicobacter pylori” (2008).

Molecules are shown by their SMILES. Values after ≈ are worked out from the molar mass of the structure shown. A value given as a limit tells only on which side of the number the result lay.

Type in all cases: functional
The subject of assay [1] is Helicobacter pylori. Description: Antimicrobial activity against Helicobacter pylori TF1.
For assay [2], the system named is Helicobacter pylori. Description: Antimicrobial activity against compound-resistant Helicobacter pylori harboring 23S rRNA mutant gene.
For assay [3], the system named is Helicobacter pylori. As to the kind of experiment: Antimicrobial activity against Helicobacter pylori TS1900.
Assay [4] concerns Helicobacter pylori. Description: Antimicrobial activity against Helicobacter pylori S1900.
Assay [5] concerns Helicobacter pylori. Description: Antimicrobial activity against Helicobacter pylori TF4.
For assay [6], the system named is Helicobacter pylori. As to the kind of experiment: Antimicrobial activity against Helicobacter pylori TF2.
For assay [7], the system named is Helicobacter pylori. Description: Antimicrobial activity against Helicobacter pylori TS1776.
Assay [8] concerns Helicobacter pylori. Description: Antimicrobial activity against clarithromycin-susceptible Helicobacter pylori ATCC 700392 transformant harboring 23S rRNA of Helicobacter pylori TS1900.
For assay [9], the system named is Helicobacter pylori. Description: Antimicrobial activity against Helicobacter pylori TF3.
For assay [10], the system named is Helicobacter pylori. As to the kind of experiment: Antimicrobial activity against Helicobacter pylori.

`CC[C@H]1OC(=O)[C@H](C)[C@@H](O[C@H]2C[C@@](C)(OC)[C@@H](O)[C@H](C)O2)[C@H](C)[C@@H](O[C@@H]2O[C@H](C)C[C@H](N(C)C)[C@H]2O)[C@](C)(OC)C[C@@H](C)C(=O)[C@H](C)[C@@H](O)[C@]1(C)O` [CLARITHROMYCIN]: the minimum inhibitory concentration (MIC) (usually the lowest concentration that inhibits growth of the organism) in assay [1] was determined as 0.5 µg/mL (≈ 0.668 µM); in assay [2], 2 µg/mL (≈ 2.67 µM); in [3], 1 µg/mL (≈ 1.34 µM); in assay [4], 1 µg/mL (≈ 1.34 µM); in assay [5], 1 µg/mL (≈ 1.34 µM); in assay [6], 0.25 µg/mL (≈ 0.334 µM). Moreover, the MIC in [7] is 0.5 µg/mL (≈ 0.668 µM); in [8], at most 0.008 µg/mL; in assay [9], 1 µg/mL (≈ 1.34 µM); in [10] it was at least 0.125 µg/mL.
